This is an account of results in publication PMC8143291, “Cytotoxicity and Microbicidal Activity of Commonly Used Organic Solvents: A Comparative Study and Application to a Standardized Extract from Vaccinium macrocarpon” (Toxics, 2021).

Some results are limits rather than exact numbers.

Experiment [1] deals with Y. enterocolitica IP 864 O: 3. Nature of the experiment: Dehydrogenase activity (DEHA) MTT test after BMD. Format: cell-based, Yersinia enterocolitica. The note with it: 24 h exposure; % against untreated control; ± SD; n = 3. As to the method:
(§1) The cell dehydrogenase (DEHA, redox, metabolic) activity of all samples was measured at the end of the BMD assay, based on reducing the MTT dye to formazan by the membrane located bacterial enzyme NADH: ubiquinone reductase (H^+-translocation). The protocol of Wang et al. was applied after minor modifications. Briefly, each sample was incubated for 120 min at 37 °C with MTT at a final concentration of 0.5 mg/mL in the culture medium. The resulting non-soluble violet formazan crystals were dissolved with an equal volume of 2-propanol supplemented with 5% formic acid. The absorbance was measured at 550 nm against a blank solution containing the respective volumes of MHB and MTT.
The IC50 values from the MTT assay were evaluated with a non-linear regression analysis (Curve fit, GraphPad Prizm 6.01 software, GraphPad Software Inc., San Diego, CA, USA) using sigmoidal concentration–response curves. The cell viability is presented as a percentage of the untreated control. At least four wells were seeded for every concentration. Three independent assays were performed (n = 3). The maximum tolerated concentration (MTC) for the cell lines was determined from three independent assays according to ISO 10993-5 as the maximum concentration at which at least 70% of the cells were viable (nonlin fit, range, GraphPad Prizm 6.01 software) GraphPad Software Inc., San Diego, CA, USA). To compare the MTC values of the solvents for each cell line, the ordinary One-way ANOVA statistical analysis based on Tukey’s multiple comparisons test with a single pooled variance (GraphPad Prizm 6.01 software) GraphPad Software Inc., San Diego, CA, USA) was utilized, and p ≤ 0.05 was set as a significance level. The respiratory activity of the bacterial cultures was calculated as a percentage against the untreated control.
For orientation: Tetrazolium assays rely on reduction of a dye to a coloured formazan, in cell work by metabolically active cells.

In a further experiment the test system is E. coli ATCC 35218. As to the kind of experiment: Dehydrogenase activity (DEHA) MTT test after BMD. Format: cell-based, Escherichia coli. The note with it: in MHB; 24 h exposure; % against untreated control; ± SD; n = 3. As for the experimental part: as §1
The IC50 values from the MTT assay were evaluated with a non-linear regression analysis (Curve fit, GraphPad Prizm 6.01 software, GraphPad Software Inc., San Diego, CA, USA) using sigmoidal concentration–response curves. The cell viability is presented as a percentage of the untreated control. […] The maximum tolerated concentration (MTC) for the cell lines was determined from three independent assays according to ISO 10993-5 as the maximum concentration at which at least 70% of the cells were viable (nonlin fit, range, GraphPad Prizm 6.01 software) GraphPad Software Inc., San Diego, CA, USA). […] The respiratory activity of the bacterial cultures was calculated as a percentage against the untreated control.

For a further experiment, the system named is S. Aureus ATCC 29213. As to the kind of experiment: Dehydrogenase activity (DEHA) MTT test after BMD. Format: cell-based, Staphylococcus aureus. The settings on record: 24 h exposure; % against untreated control; ± SD; n = 3. As to the method: as §1
The cell viability is presented as a percentage of the untreated control. At least four wells were seeded for every concentration. Three independent assays were performed (n = 3). […] The respiratory activity of the bacterial cultures was calculated as a percentage against the untreated control.

Experiment [2] relates to A-375 (malignant melanoma). Nature of the experiment: MTT dye-reduction cytotoxicity assay (ISO 10993-5). Format: cell-based, human. The note with it: solvent alone, n = 3. The source says:
The cell lines utilized in this study included the human tumor lines A-375 (malignant melanoma) and A-431 (non-melanoma epidermoid squamous skin carcinoma) as well as the models for non-tumorigenic cells—HaCaT (immortalized human keratinocytes) and CCL-1^TM (transformed mouse fibroblasts, NCTC clone 929). The first three cell lines were obtained from CLS Cell Lines Service (GmbH, Eppelheim, Germany). CCL-1^TM was purchased from the American Type Culture Collection (ATCC, Manassas, VA, USA). Cells were maintained in a controlled environment—sterile cell culture flasks in a CO2 incubator Panasonic MCO-18AC (Panasonic Healthcare co., ltd, Oizumi-Machi, Japan) at 37 °C and a humidified atmosphere containing 5% CO2. CCL-1 was cultured in MEM with 10% heat-inactivated horse serum and 2 mM L-glutamine, and the cell culture medium for the rest of the cell lines was DMEM-HG with 4.5 g/L glucose with the addition of 10% heat-inactivated fetal bovine serum and 4 mM L-glutamine. Pen/strep (concentration of penicillin G sodium 10^5 Units/L and of streptomycin sulfate 100 mg/L) was added to both culture media. The cell lines were maintained as an adherent monolayer in a log phase. The cells were sub-cultivated about 1–3 times per week after the monolayer reached 80–90% confluence. The medium was removed from the flask, and the cell monolayer was washed with 3–5 mL PBS. The cells were incubated with 0.05% EDTA in PBS for 8–10 min, followed by the next step where all cell lines were subjected to enzyme cell detachment. HaCaT and CCL-1 monolayers were detached with 1 mL solution of trypsin/EDTA (0.1%/0.05% for HaCaT and 0.25% (w/v)/0.53 mM for CCL-1) and incubated for 2–5 min at 37 °C (for HaCaT) or at room temperature (for CCL-1 cells), whereas Accutase® was used for A-375 and A-431 lines. The incubation lasted until the separation and dispersion of the cells in the monolayer were observed using light microscopy. In the end, all cell lines were resuspended in 10 mL medium and centrifuged for 3 min at 300× g. The cell pellet was resuspended in fresh medium and sub-cultivated at a seeding density of 1.0 × 10^4 cells/cm^2.
The MTT test was performed in order to determine the median inhibitory (IC50) and MTC concentrations of the solvents and PAC according to Annex C, ISO 10993-5 [2, 21]. Briefly, 100 µL of the cell suspension (1 × 10^5 cells/mL) were seeded per well in 96-well plates with a flat bottom. The cells were incubated for 24 h, allowing them to enter the log phase of their growth. On the 24th hour, the cells were treated with the solvents or CystiCran® solutions in concentrations ranging between 0.004% and 2% volume fraction (v/v) and incubated further for 72 h. The incubation periods are following the recommendations of the FDA guide for the use of ISO 10993-1 [1]. At the end of the incubation period, 10 µL of an MTT solution (5 mg/mL) were added to each well, and the plates were kept at 37 °C for 2 hours. Thereafter, the medium was aspirated, and the formed formazan crystals were dissolved in 100 μL/well of 2-propanol supplemented with 5% formic acid. The same solvent was used as a blank. […] The absorption was measured at 540 nm (reference filter at 690 nm) on a microplate reader ELx800 (BioTek Instruments, Inc., Winooski, VT, Winooski, VT, USA).
The IC50 values from the MTT assay were evaluated with a non-linear regression analysis (Curve fit, GraphPad Prizm 6.01 software, GraphPad Software Inc., San Diego, CA, USA) using sigmoidal concentration–response curves. […]

`C[S+](C)[O-]` [DMSO, dimethyl sulfoxide]: the “DEHA (dehydrogenase activity)” value was determined as 19.13 ± 0.17% in experiment [1], 13.02% in the experiment with E. coli ATCC 35218 and 12.29 ± 0.04% with S. Aureus ATCC 29213.

`CCO` [EtOH, ethanol]: in experiment [2] (72 h, at least 70% of cells viable), the “MTC (maximum tolerated concentration)” value is > 2 % (v/v). The “IC50 (CI 95%)” value in experiment [2] (72 h incubation) is > 2 % (v/v).
